For data set [1], the system named is alpha 1-acid glycoprotein (AAG). The conditions noted are these: reported; cited from earlier work.
The subject of another data set is plasma protein. The note with it: TKIs in clinical use; cited from earlier work.
Data set [2] can be described thus: Average plasma concentration of erlotinib co-administered with MM-121. Type of data set: in vivo, human. The conditions noted are these: for Erlotinib Avg Conc.: plasma. From the text:
The ability of the anti-ErbB3 agent to alter the pharmacokinetics of a co-administered AAGB or TKI can be evaluated by measuring serum drug levels and calculating pharmacokinetic parameters. Pharmacokinetic parameters referred to herein (e.g., Example 1) describe the in vivo characteristics of a drug over time. These include plasma concentration (C), as well as Cmax, Tmax, and AUC. The term “Cmax” refers to the measured plasma concentration of the active agent at the point of maximum, or peak, concentration following an administration. The term “Tmax” refers to the time from drug administration until Cmax is reached. The term “AUC” refers to the area under the curve of a graph of the measured plasma concentration of an active agent vs. time, measured from one time point to another time point. For example AUC0-t is the area under the curve of plasma concentration versus time from time 0 to time t, where time 0 is the time of initial administration of the drug. Time t can be the last time point with measurable plasma concentration for an individual drug.
Patients also received one of two different doses of erlotinib (either 100 mg or 150 mg) administered daily orally. The antibody administration began on Day 1 and continued with weekly doses and the erlotinib administration began on Day 2 and continued with daily doses. Pharmacokinetic parameters were monitored for the duration of treatment, until the patient's cancer progressed or the patient came off the study.
For the erlotinib, the average plasma concentration was measured.

SMILES strings stand for the structures.

Regarding `Cc1ccc(NC(=O)c2ccc(CN3CCN(C)CC3)cc2)cc1Nc1nccc(-c2cccnc2)n1` [imatinib], the “binding to AAG that can alter bioavailability” value in data set [1] is recorded as “significant binding”.
Turning to `CN(C)C/C=C/C(=O)Nc1cc2c(Nc3ccc(F)c(Cl)c3)ncnc2cc1O[C@H]1CCOC1` [afatinib], the plasma protein binding result with plasma protein is on record as “high”.
With `CS(=O)(=O)CCNCc1ccc(-c2ccc3ncnc(Nc4ccc(OCc5cccc(F)c5)c(Cl)c4)c3c2)o1` [lapatinib], in data set [1], the “binding to AAG that can alter bioavailability” value is given as “significant binding”. Besides, the plasma protein binding entry with plasma protein is on record as “high”.
For the compound `CNC(=O)c1cc(Oc2ccc(NC(=O)Nc3ccc(Cl)c(C(F)(F)F)c3)cc2)ccn1` [sorafenib], the plasma protein binding entry in the data set on plasma protein is listed as “high”.
Turning to `Cc1cn(-c2cc(NC(=O)c3ccc(C)c(Nc4nccc(-c5cccnc5)n4)c3)cc(C(F)(F)F)c2)cn1` [nilotinib], the plasma protein binding result with plasma protein is on record as “high”.
`Cc1nc(Nc2ncc(C(=O)Nc3c(C)cccc3Cl)s2)cc(N2CCN(CCO)CC2)n1` [dasatinib]: in the data set on plasma protein, the plasma protein binding entry is reported as “high”.
For the compound `COc1cc2ncnc(Nc3ccc(F)c(Cl)c3)c2cc1OCCCN1CCOCC1` [gefitinib], the “binding to AAG that can alter bioavailability” value in data set [1] is recorded as “significant binding”. In addition, in the data set on plasma protein, the plasma protein binding entry is reported as “high”.
`C#Cc1cccc(Nc2ncnc3cc(OCCOC)c(OCCOC)cc23)c1` [Erlotinib, erlotinib]: in data set [1], the “binding to AAG that can alter bioavailability” value is on record as “significant binding”. In addition, the “higher average plasma concentration of erlotinib” value in data set [2] (Patient 5 (12 mg/kg MM-121) vs Patient 2 (6 mg/kg MM-121), each 150 mg erlotinib) is listed as “approximately 2.19 fold”; in data set [2] (Patient 8 (12 mg/kg MM-121) vs Patient 1 (6 mg/kg MM-121), each 100 mg erlotinib) it was “approximately 2.02 fold”; in data set [2] (patients treated with 12 mg/kg anti-ErbB3 antibody compared to patients treated with 6 mg/kg) it was 2-3 fold. Also, the “Erlotinib Avg Conc.” value in data set [2] (Subject 1, erlotinib 100 mg daily oral + MM-121 6 mg/kg weekly i.v.) stood at 384 ng/mL; in data set [2] (Subject 2, erlotinib 150 mg daily oral + MM-121 6 mg/kg weekly i.v.), 624 ng/mL; in data set [2] (Subject 3, erlotinib 150 mg daily oral + MM-121 6 mg/kg weekly i.v.) it was 569 ng/mL; in data set [2] (Subject 4, erlotinib 150 mg daily oral + MM-121 6 mg/kg weekly i.v.) it was 656 ng/mL; in data set [2] (Subject 5, erlotinib 150 mg daily oral + MM-121 12 mg/kg weekly i.v.) it was 1370 ng/mL; in data set [2] (Subject 6, erlotinib 150 mg daily oral + MM-121 12 mg/kg weekly i.v.), 1165.3 ng/mL. Further, the “Erlotinib Avg Conc.” value in data set [2] (Subject 7, erlotinib 100 mg daily oral + MM-121 12 mg/kg weekly i.v.) came out at 2395.6 ng/mL; in data set [2] (Subject 8, erlotinib 100 mg daily oral + MM-121 12 mg/kg weekly i.v.), 777.5894 ng/mL. Besides, the plasma protein binding entry in the data set with plasma protein is given as “high”.
With `Cc1ccc(Nc2nccc(N(C)c3ccc4c(C)n(C)nc4c3)n2)cc1S(N)(=O)=O` [pazopinib], the plasma protein binding entry with plasma protein is recorded as “high”.
`CCN(CC)CCNC(=O)c1c(C)[nH]c(/C=C2\C(=O)Nc3ccc(F)cc32)c1C` [sunitinib]: in the data set with plasma protein, the plasma protein binding result is given as “high”.
